Source: PubChem BioAssay (NCI)
Several values for one entry are separate records, joined by “and”; a condition that tells them apart may be missing. Identical values can stand only once.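 Assay format: 96-well plates, 48-hour exposure. GI50 = concentration required for 50% inhibition of growth. TGI marks complete inhibition of growth.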

Tests used:
Test in all cases: NCI anticancer screen, dose series, 48 h
[1] = system: SNB-19 CNS
[2] = system: SR leukemia
[3] = system: 786-0 renal
[4] = system: UACC-62 melanoma
[5] = system: HS 578T breast
[6] = system: SF-268 CNS
[7] = system: MDA-MB-435
[8] = system: HCC-2998 colon
[9] = system: SW-620 colon
[10] = system: UACC-257 melanoma
[11] = system: NCI-H23 lung
[12] = system: MOLT-4 leukemia
[13] = system: DU-145 prostate
[14] = system: MDA-N
[15] = system: EKVX NSCLC
[16] = system: OVCAR-4 ovarian
[17] = system: OVCAR-8 ovarian
[18] = system: U251 CNS
[19] = system: OVCAR-3 ovarian
[20] = system: NCI-H226 lung
[21] = system: HCT-15 colon
[22] = system: SK-OV-3 ovarian
[23] = system: IGROV1 ovarian
[24] = system: HOP-92 NSCLC
[25] = system: SK-MEL-2 melanoma
[26] = system: HT29 colon
[27] = system: PC-3 prostate
[28] = system: ACHN renal
[29] = system: SN12C renal
[30] = system: MALME-3M melanoma
[31] = system: UO-31 renal
[32] = system: SF-295 CNS
[33] = system: K-562 leukemia
[34] = system: M14 melanoma
[35] = system: OVCAR-5 ovarian
[36] = system: NCI-H460 lung
[37] = system: NCI/ADR-RES ovarian
[38] = system: SNB-75 CNS
[39] = system: SK-MEL-28 melanoma
[40] = system: HOP-62 NSCLC
[41] = system: HL-60(TB) leukemia
[42] = system: MCF7 breast
[43] = system: TK-10 renal
[44] = system: RPMI-8226 leukemia
[45] = system: RXF 393 renal
[46] = system: CAKI-1 renal
[47] = system: MDA-MB-231 breast
[48] = system: A498 renal
[49] = system: A549 NSCLC
[50] = system: KM12 colon
[51] = system: BT-549 breast
[52] = system: SK-MEL-5 melanoma
[53] = system: CCRF-CEM leukemia
[54] = system: T-47D breast
[55] = system: SF-539 CNS
[56] = system: NCI-H522 lung
[57] = system: COLO 205 colon
[58] = system: HCT-116 colon

For `CC(=O)O[C@H]1CC2C(C3CC[C@H](C(C)CCC(N)=O)[C@]31C)[C@H](OC(C)=O)C[C@@H]1CC3(CC[C@]21C)OOC1(CCC(C)CC1)OO3` (some centres not stated), the GI50 [1] was 5.31 µM and 2.62 µM, the TGI [1] was 19.4 µM and 5.72 µM and the TGI [2] was 3.28 µM. The TGI [3] was 3.78 µM and 3.2 µM, the GI50 [4] was 1.85 µM and the TGI [4] was 3.99 µM. The TGI [5] was 5.77 µM and 5.51 µM, the TGI [6] was 4.46 µM and the TGI [7] was 4.47 µM and 3.23 µM. The TGI [8] was 4.57 µM and 3.96 µM, the TGI [9] was 11.5 µM and 4.24 µM and the TGI [10] was 22.9 µM and 19.2 µM. For the same compound, the TGI [11] was 5.29 µM and 3.45 µM, the TGI [12] was 4.47 µM and 4.44 µM and the GI50 [13] was 1.82 µM. The TGI [13] was 3.26 µM, the TGI [14] was 4.91 µM and the GI50 [15] was 1.01 µM and 1.43 µM. The TGI [15] was 2.35 µM and 2.78 µM, the TGI [16] was 3.52 µM and 3.02 µM and the TGI [17] was 4.56 µM and 3.12 µM. For the same compound, the TGI [18] was 3.78 µM, the TGI [19] was 3.51 µM and 3.8 µM and the TGI [20] was 6.2 µM and 3.15 µM. For the same compound, the TGI [21] was 4.89 µM and 3.43 µM, the GI50 [22] was 4.3 µM and 2.11 µM and the TGI [22] was 16.3 µM and 3.94 µM. The GI50 [23] was 1.54 µM and 0.491 µM, the TGI [23] was 3.07 µM and 1.84 µM and the TGI [24] was 6.25 µM and 3.56 µM. The TGI [25] was 4.37 µM and 3.2 µM, the TGI [26] was 7.01 µM and the TGI [27] was 9.44 µM and 4.29 µM. The TGI [28] was 3.88 µM and 2.93 µM, the TGI [29] was 5.69 µM and 3.24 µM and the TGI [30] was 9.95 µM and 4.07 µM. For the same compound, the TGI [31] was 3.08 µM and 2.64 µM, the TGI [32] was 12.3 µM and 3.59 µM and the TGI [33] was 16.8 µM and 5 µM. For the same compound, the TGI [34] was 8.64 µM and 3.76 µM, the TGI [35] was 4.86 µM and 3.66 µM and the TGI [36] was 8.76 µM. For the same compound, the TGI [37] was 8.01 µM and 3.28 µM, the GI50 [38] was 1.98 µM and the TGI [38] was 4.05 µM. The GI50 [39] was 5.65 µM and 2.48 µM, the TGI [39] was 14.3 µM and 8.13 µM and the GI50 [40] was 1.47 µM and 1.07 µM. For the same compound, the TGI [40] was 2.96 µM and 2.31 µM, the TGI [41] was 6.13 µM and 4.82 µM and the TGI [42] was 15.2 µM and 5.01 µM. The TGI [43] was 8.39 µM and 3.57 µM, the TGI [44] was 4.07 µM and the TGI [45] was 9.72 µM. The TGI [46] was 5.15 µM and 3.25 µM, the TGI [47] was 4.94 µM and the TGI [48] was 29.3 µM and 24.4 µM. For the same compound, the TGI [49] was 6.13 µM, the TGI [50] was 4.69 µM and 3.41 µM and the TGI [51] was 6.43 µM and 3.35 µM. For the same compound, the TGI [52] was 11.6 µM and 3.22 µM, the TGI [53] was 3.33 µM and 4.43 µM and the TGI [54] was 4.19 µM and 4.21 µM. For the same compound, the TGI [55] was 7.1 µM and 3.37 µM, the TGI [56] was 3.6 µM and 2.94 µM and the TGI [57] was 3.19 µM and 3.12 µM. The TGI [58] was 5.36 µM and 3.72 µM.
